Reference: patent US9400280B2, “Piperidine derivatives and methods of treating hepatitis B infections” (Novira Therapeutics, Inc., priority 2014, dated 2016)

What was measured:
[1] = system: HBV replication in HepG2-2.2.15 cells; test: Dot-blot assay (inhibition of HBV replication); type: cell-based; conditions: at 10 μM, six days, reduction in HBV DNA levels
Procedure: Compounds active in the HBV assembly assay are tested for their activity and toxicity in cellular assay. In the first anti-viral assay, the ability of compounds to inhibit HBV replication in an HBV-producing hepatoma cell line using the dot-blot method is evaluated.
Briefly, confluent monolayers of HepG2-2.2.15 cells are incubated with complete medium containing various concentrations of a test compound. Three days later, the culture medium is replaced with fresh medium containing the appropriately diluted test compound. Six days following the initial administration of the test compound, the cell culture supernatant is collected, and cell lysis is performed. The samples are applied onto Nylos membranes and DNA is immobilized to the membrane by UV cross-linking. After pre-hybridization, the HBV probe is added and the hybridization is performed overnight. The membranes are exposed to the Kodak films; antiviral activity is calculated from the reduction in HBV DNA levels (EC50). The EC50 for antiviral activity is calculated from the dose response curves of active compounds. Assay performance over time is monitored by the use of the standard positive control compounds ETV, BAY 41-4109, and HAP-1.
Selected compounds were tested for their activity and toxicity in cellular assay. In the first anti-viral assay, the ability of compounds to inhibit HBV replication in an HBV-producing hepatoma cell line using the dot-blot method was evaluated.
Confluent monolayers of HepG2-2.2.15 cells were incubated with complete medium containing various concentrations of a test compound. Three days later, the culture medium was replaced with fresh medium containing the appropriately diluted test compound. Six days following the initial administration of the test compound, the cell culture supernatant was collected, and cell lysis was performed. The samples were applied onto Nylos membranes and DNA was immobilized to the membrane by UV cross-linking. After pre-hybridization, the HBV probe was added and the hybridization was performed overnight. The membranes were exposed to the Kodak films; antiviral activity was calculated from the reduction in HBV DNA levels (EC50). The EC50 for antiviral activity was calculated from the dose response curves of active compounds. Assay performance over time was monitored by the use of the standard positive control compounds ETV, BAY 41-4109, and HAP-1.

[2] = target: HBV C150Bo capsid (core) protein (Hepatitis B virus genotype D subtype adw, UniProt P03147, C107A/C48A/C61A/R150C); test: HBV assembly assay (fluorescence quenching in vitro capsid assembly); type: biochemical; conditions: at about 10 μM; 50 mM Hepes pH 7.5, 150 mM NaCl, 1 hour at room temperature
HBV C150Bo capsid (core) protein, sequence (P03147 1-150 C48A/C61A/C107A/R150C): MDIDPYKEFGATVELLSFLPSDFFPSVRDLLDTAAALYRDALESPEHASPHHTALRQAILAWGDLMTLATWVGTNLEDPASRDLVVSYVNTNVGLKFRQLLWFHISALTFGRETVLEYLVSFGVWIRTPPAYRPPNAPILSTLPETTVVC

| Structure (SMILES) | Activity in dot-blot-assay [1] | Activity (HBV assembly assay) [2] |
| --- | --- | --- |
| O=C(Nc1cc(F)c(F)c(F)c1)c1ccc(F)c(S(=O)(=O)N2CCC(O)C(F)(F)C2)c1 (stereo not drawn) [Compound 1732] | + (‘+’ indicates >50% activity at 10 (μM)) | + (‘+’ indicates >50% activity at about 10 (μM)) |
| O=C(Nc1ccc(F)c(F)c1)c1ccc(F)c(S(=O)(=O)N2CCC(O)C(F)(F)C2)c1 (stereo not drawn) [Compound 1733] | + (‘+’ indicates >50% activity at 10 (μM)) | + (‘+’ indicates >50% activity at about 10 (μM)) |
| O=C(Nc1ccc(F)c(Cl)c1)c1ccc(F)c(S(=O)(=O)N2CCC(O)C(F)(F)C2)c1 (stereo not drawn) [Compound 1734] | + (‘+’ indicates >50% activity at 10 (μM)) | + (‘+’ indicates >50% activity at about 10 (μM)) |
| O=C(Nc1ccc(F)c(Cl)c1)c1ccc(O)c(S(=O)(=O)N2CCC(O)C(F)(F)C2)c1 (stereo not drawn) [Compound 1963] | – | + (‘+’ indicates >50% activity at about 10 (μM)) |
| COc1ccc(C(=O)Nc2ccc(F)c(Cl)c2)cc1S(=O)(=O)N1CCC(O)C(F)(F)C1 (stereo not drawn) [Compound 1964] | – | + (‘+’ indicates >50% activity at about 10 (μM)) |
| CCOc1ccc(C(=O)Nc2ccc(F)c(Cl)c2)cc1S(=O)(=O)N1CCC(O)C(F)(F)C1 (stereo not drawn) [Compound 1965] | – | + (‘+’ indicates >50% activity at about 10 (μM)) |
| O=C(Nc1ccc(F)c(Cl)c1)c1ccc(OC2CC2)c(S(=O)(=O)N2CCC(O)C(F)(F)C2)c1 (stereo not drawn) [Compound 1967] | – | + (‘+’ indicates >50% activity at about 10 (μM)) |
| O=C(Nc1ccc(F)c(Cl)c1)c1ccc(CF)c(S(=O)(=O)N2CCC(O)C(F)(F)C2)c1 (stereo not drawn) [Compound 1995] | + (‘+’ indicates >50% activity at 10 (μM)) | + (‘+’ indicates >50% activity at about 10 (μM)) |
